We go through six compounds from paper PMC2760932 (Journal of medicinal chemistry, 2009).

One assay concerns the target D2 receptor (Homo sapiens, UniProt P14416). Kind of assay: D2 binding assay by the contractor.
A further assay deals with dopamine D3 receptor (Homo sapiens, UniProt P35462). Kind of assay: Quinpirole-stimulated mitogenesis assay, D3.
For assay [1], the target named is human D3 dopamine receptor (Homo sapiens, UniProt P35462). As to the kind of experiment: Competition binding, [125I]IABN, HEK 293 cells transfected with human D3. The conditions noted are these: for D4/D3: Table 2, ratio of Ki values.

Some results are limits rather than exact numbers.

Sequence of human D3 dopamine receptor (P35462 whole entry): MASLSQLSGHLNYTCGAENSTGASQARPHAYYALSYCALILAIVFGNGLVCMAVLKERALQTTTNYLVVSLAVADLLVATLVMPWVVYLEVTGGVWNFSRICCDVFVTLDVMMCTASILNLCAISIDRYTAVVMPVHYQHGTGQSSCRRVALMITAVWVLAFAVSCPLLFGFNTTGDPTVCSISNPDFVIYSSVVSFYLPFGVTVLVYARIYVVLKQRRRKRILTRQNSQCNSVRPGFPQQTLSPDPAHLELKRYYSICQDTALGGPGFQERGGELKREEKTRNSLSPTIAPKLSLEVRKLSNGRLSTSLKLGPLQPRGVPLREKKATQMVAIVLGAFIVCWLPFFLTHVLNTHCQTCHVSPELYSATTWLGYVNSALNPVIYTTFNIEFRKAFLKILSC
Sequence of D2 receptor (P14416 whole entry): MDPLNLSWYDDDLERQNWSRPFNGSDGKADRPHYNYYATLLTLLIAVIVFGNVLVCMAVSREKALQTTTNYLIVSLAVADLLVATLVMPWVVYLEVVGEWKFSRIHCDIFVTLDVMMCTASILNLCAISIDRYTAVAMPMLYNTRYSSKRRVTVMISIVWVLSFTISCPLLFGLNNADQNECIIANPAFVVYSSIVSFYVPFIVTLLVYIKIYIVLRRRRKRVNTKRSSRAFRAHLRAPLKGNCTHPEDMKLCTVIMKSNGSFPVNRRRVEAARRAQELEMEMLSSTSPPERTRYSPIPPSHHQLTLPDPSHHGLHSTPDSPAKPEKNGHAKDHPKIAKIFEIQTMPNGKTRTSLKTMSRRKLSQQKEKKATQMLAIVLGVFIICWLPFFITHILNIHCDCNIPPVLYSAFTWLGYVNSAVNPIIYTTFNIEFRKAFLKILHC
Sequence of dopamine D3 receptor (P35462 whole entry): as the sequence (P35462 whole entry) above

One may read the Ki as a dissociation constant, usually derived from enzyme kinetics or from competition with a known ligand. The term EC50 denotes the concentration at which the effect is half-maximal. Low values mean a more potent agent, high ones a less potent agent. Compound `COc1ccc2[nH]c(C(=O)NCCC(O)CN3CCN(c4ccccc4OC)CC3)cc2c1` (centres unmarked) [Compound 30, N-(3-Hydroxy-4-(4-(2-methoxy-phenyl)piperazin-1-yl)butyl)-5-methoxy-1H-indole-2-carboxamide] displayed a Ki at D2 receptor greater than 400 nM. The EC50 at dopamine D3 receptor was 13.7 nM.
As for `O=C(NCCC(O)CN1CCN(c2cccc(Cl)c2Cl)CC1)c1cc2ccccc2o1` (centres unmarked) [Compound 31, N-(4-(4-(2,3-Dichloro-phenyl)piperazin-1-yl)-3-hydroxybutyl)benzofuran-2-carboxamide], the D4/D3 in assay [1] is listed as greater than 1600.
Regarding `COc1ccccc1N1CCN(CC(O)CCNC(=O)c2cc3cc(F)ccc3[nH]2)CC1` (centres unmarked) [Compound 26, 5-Fluoro-N-(3-hydroxy-4-(4-(2-methoxy-phenyl)piperazin-1-yl)butyl)-1H-indole-2-carboxamide], the “D3 selectivity over D2 receptor mediated mitogenesis” value on dopamine D3 receptor was roughly 100 fold.
As for `COc1ccc2[nH]c(C(=O)NCCC(O)CN3CCN(c4cccc(Cl)c4Cl)CC3)cc2c1` (centres unmarked) [Compound 29, N-(4-(4-(2,3-Dichloro-phenyl)piperazin-1-yl)-3-hydroxybutyl)-5-methoxy-1H-indole-2-carboxamide], the Ki at D2 receptor is greater than 400 nM; in assay [1], 1 nM.
As to `O=C(NCCC(O)CN1CCN(c2cccc(Cl)c2Cl)CC1)c1cc2cc(I)ccc2o1` (centres unmarked) [Compound 33, N-(4-(4-(2,3-Dichloro-phenyl)piperazin-1-yl)-3-hydroxybutyl)-5-iodobenzofuran-2-carboxamide], the D4/D3 in assay [1] is reported as greater than 1300.
In the case of `COc1ccccc1N1CCN(CCCCNC(=O)c2cc3cc(I)ccc3o2)CC1` [Compound 14, 5-Iodo-N-(4-(4-(2-methoxy-phenyl)piperazin-1-yl)butyl)benzofuran-2-carboxamide], the “D3 selectivity over D2 (binding)” value in assay [1] (from Ki values) was greater than 100 fold.
